Source: PMC1175024, “Chondrocytes, synoviocytes and dermal fibroblasts all express PH-20, a hyaluronidase active at neutral pH” (Arthritis Research & Therapy, 2005)

Target: T1, PH-20 (sperm adhesion molecule 1), immunopurified from human connective tissue cell layers (Homo sapiens, UniProt P38567)
T1 construct: gene SPAM1; 60-65 kDa; no tag
T1 sequence (P38567 36-490): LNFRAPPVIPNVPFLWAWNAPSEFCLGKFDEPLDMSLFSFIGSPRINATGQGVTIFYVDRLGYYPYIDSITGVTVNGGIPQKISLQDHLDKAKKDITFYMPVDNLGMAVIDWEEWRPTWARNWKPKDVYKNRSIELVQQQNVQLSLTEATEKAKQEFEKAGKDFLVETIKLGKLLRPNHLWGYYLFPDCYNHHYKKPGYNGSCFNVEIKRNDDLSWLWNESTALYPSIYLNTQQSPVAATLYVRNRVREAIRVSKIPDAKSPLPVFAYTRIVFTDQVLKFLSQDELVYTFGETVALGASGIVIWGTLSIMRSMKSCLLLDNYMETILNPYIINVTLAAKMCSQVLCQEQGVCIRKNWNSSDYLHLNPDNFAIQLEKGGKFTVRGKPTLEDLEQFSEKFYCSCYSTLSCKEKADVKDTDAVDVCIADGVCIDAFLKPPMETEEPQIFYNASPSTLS
Experiment: hyaluronan substrate gel electrophoresis (zymography)
Assay type: biochemical
Conditions: 5 ug/ml apigenin in DMSO; 0.15 M NaCl, 0.5 mM CaCl2, 7 mM 1,4-saccharolactone; pH 6.5; qualitative inhibition

O=c1cc(-c2ccc(O)cc2)oc2cc(O)cc(O)c12 [apigenin]
activity disappeared: hyaluronidase activity purified from cell layers with the immunoaffinity gel (Api(-), right lane), both disappeared
